Laboratory results as given in patent publication US6737383B1, “Herbicidal oxadiazolidines” (priority 1999, dated 2004).

Key:
crabgrass = assay: Test B pre/postemergence crabgrass; type: in vivo, Digitaria sanguinalis
In short: (§1)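 Response is a visual 0-to-10 score relative to untreated plants, where 0 means no effect and 10 means complete control, taken twelve to sixteen days after application. Treatments went onto soil at planting and onto foliage of 1- to 4-leaf plants, using a surfactant-containing non-phytotoxic solvent.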

corn = assay: Test B pre/postemergence corn; type: in vivo, Zea mays
In short: as §1

smallflower flatsedge = assay: Test B flood test smallflower flatsedge; type: in vivo, Cyperus difformis
In short: (§2)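 Flood test on plants grown to the 2-leaf stage; treated plants kept in greenhouse twelve to sixteen days, then visually rated against controls on a 0 (no effect) to 10 (complete control) scale.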

rice = assay: Test B flood test rice; type: in vivo, Oryza sativa
In short: as §2

morningglory = assay: Test B pre/postemergence morningglory; type: in vivo, Ipomoea hederacea
In short: as §1

rape = assay: Test B pre/postemergence rape; type: in vivo, Brassica napus
In short: as §1

blackgrass = assay: Test B pre/postemergence blackgrass; type: in vivo, Alopecurus myosuroides
In short: as §1

wheat = assay: Test B pre/postemergence wheat; type: in vivo, Triticum aestivum
In short: as §1

wild oat = assay: Test B pre/postemergence wild oat; type: in vivo, Avena fatua
In short: as §1

sugar beet = assay: Test B pre/postemergence sugar beet; type: in vivo, Beta vulgaris
In short: as §1

velvetleaf = assay: Test B pre/postemergence velvetleaf; type: in vivo, Abutilon theophrasti
In short: as §1

purple nutsedge = assay: Test B pre/postemergence purple nutsedge; type: in vivo, Cyperus rotundus; details: Postemergence
In short: as §1

duck salad = assay: Test B flood test duck salad; type: in vivo, Heteranthera limosa
In short: as §2

surinam grass = assay: Test B pre/postemergence surinam grass; type: in vivo, Brachiaria decumbens
In short: as §1

pigweed = assay: Test B pre/postemergence pigweed; type: in vivo, Amaranthus retroflexus
In short: as §1

soybean = assay: Test B pre/postemergence soybean; type: in vivo, Glycine max
In short: as §1

giant foxtail = assay: Test B pre/postemergence giant foxtail; type: in vivo, Setaria faberii
In short: as §1

bamyardgrass = assay: Test B flood test barnyardgrass; type: in vivo, Echinochloa crus-galli
In short: as §2

cocklebur = assay: Test B pre/postemergence cocklebur; type: in vivo, Xanthium strumarium
In short: as §1

bedstraw = assay: Test B pre/postemergence bedstraw; type: in vivo, Galium aparine
In short: as §1

[1] = Preemergence, Rate 62 g/ha, scale of 0 to 10 where 0 is no effect and 10 is complete control
[2] = Preemergence, Rate 250 g/ha, scale of 0 to 10 where 0 is no effect and 10 is complete control
[3] = Preemergence, Rate 500 g/ha, scale of 0 to 10 where 0 is no effect and 10 is complete control
[4] = Rate 125 g/ha, Preemergence, scale of 0 to 10 where 0 is no effect and 10 is complete control
[5] = Rate 500 g/ha, Postemergence, scale 0 to 10, 0 no effect, 10 complete control
[6] = Rate 62 g/ha, Postemergence, scale of 0 to 10 where 0 is no effect and 10 is complete control
[7] = Rate 125 g/ha, Postemergence, scale 0 to 10
[8] = Rate 62 g/ha, headed Pre-emergence (flood test species), scale 0 to 10 (0 no effect, 10 complete control)
[9] = Rate 125 g/ha, Pre-emergence, flood test species, scale 0 to 10 where 0 is no effect and 10 is complete control
[10] = Rate 250 g/ha, Pre-emergence, flood-test species, scale 0 to 10, 0 is no effect, 10 is complete control
[11] = Rate 500 g/ha, Pre-emergence, flood test species, scale 0 to 10 (0 no effect, 10 complete control)

CC(C)N(C(=O)n1oc(=O)n(CC2CC2)c1=O)c1ccc(F)cc1 [Compound 251]
5: Plant response rating, Corn (corn; [3]) | Velvetleaf plant response rating (velvetleaf; [2]) | Redroot pigweed plant response rating (pigweed; [4])
3: Crabgrass plant response rating (crabgrass; [1]) | B. signalgrass plant response rating (surinam grass; [4]) | Cocklebur plant response rating (cocklebur; [5])
6: Plant response rating (0 to 10; 0 is no effect, 10 is complete control), Crabgrass (crabgrass; Rate 250 g/ha, Postemergence) | Blackgrass plant response rating (blackgrass; [1]) | Wild oats plant response rating (wild oat; [4]) | Sugarbeets plant response rating (sugar beet; [1]) | Soybean plant response rating (soybean; [5]) | Bedstraw plant response rating (bedstraw; [7])
2: Wheat plant response rating (wheat; [5]) | Sugarbeets plant response rating (sugar beet; [5]) | B. signalgrass plant response rating (surinam grass; [1]) | B. signalgrass plant response rating (surinam grass; [5]) | Plant response rating (0 to 10; 0 is no effect, 10 is complete control), Redroot pigweed (pigweed; Rate 250 g/ha, Postemergence) | Bedstraw plant response rating (bedstraw; [6])
4: Plant response rating, Morningglory (morningglory; [3]) | Blackgrass plant response rating (blackgrass; [7]) | Velvetleaf plant response rating (velvetleaf; [4]) | Redroot pigweed plant response rating (pigweed; [5])
8: Blackgrass plant response rating (blackgrass; [4]) | Plant response rating (0 to 10; 0 is no effect, 10 is complete control), Blackgrass (blackgrass; Rate 250 g/ha, Postemergence) | Blackgrass plant response rating (blackgrass; [5]) | Plant response rating, Wheat (wheat; [3]) | Wild oats plant response rating (wild oat; [2]) | Giant foxtail plant response rating (giant foxtail; [1]) | Giant foxtail plant response rating (giant foxtail; [5])
7: Crabgrass plant response rating (crabgrass; [4]) | Plant response rating (0 to 10; 0 is no effect, 10 is complete control), Morningglory (morningglory; Rate 250 g/ha, Postemergence) | Plant response rating, Velvetleaf (velvetleaf; [3]) | B. signalgrass plant response rating (surinam grass; [2]) | Plant response rating (0 to 10; 0 is no effect, 10 is complete control), Giant foxtail (giant foxtail; Rate 250 g/ha, Postemergence) | Plant response rating (0 to 10; 0 is no effect, 10 is complete control), Bedstraw (bedstraw; Rate 250 g/ha, Postemergence)
9: Crabgrass plant response rating (crabgrass; [2]) | Crabgrass plant response rating (crabgrass; [5]) | Morningglory plant response rating (morningglory; [5]) | Rape plant response rating (rape; [2]) | Rape plant response rating (rape; [4]) | Blackgrass plant response rating (blackgrass; [2]) | Plant response rating, Wild oats (wild oat; [3]) | Plant response rating, B. signalgrass (surinam grass; [3]) | Bedstraw plant response rating (bedstraw; [5])
10: Plant response rating, Crabgrass (crabgrass; [3]) | Plant response rating, Rape (rape; [3]) | Plant response rating, Blackgrass (blackgrass; [3]) | Sugarbeets plant response rating (sugar beet; [2]) | Plant response rating, Sugarbeets (sugar beet; [3]) | Sugarbeets plant response rating (sugar beet; [4]) | Redroot pigweed plant response rating (pigweed; [2]) | Plant response rating, Redroot pigweed (pigweed; [3]) | Giant foxtail plant response rating (giant foxtail; [2]) | Plant response rating, Giant foxtail (giant foxtail; [3]) | Giant foxtail plant response rating (giant foxtail; [4]) | Bedstraw plant response rating (bedstraw; [2]) | Plant response rating, Bedstraw (bedstraw; [3])
0: Corn plant response rating (corn; [1]) | Corn plant response rating (corn; [2]) | Corn plant response rating (corn; [6]) | Corn plant response rating (corn; [7]) | Corn plant response rating (corn; [4]) | Plant response rating (0 to 10; 0 is no effect, 10 is complete control), Corn (corn; Rate 250 g/ha, Postemergence) | Corn plant response rating (corn; [5]) | S. Flatsedge plant response rating (smallflower flatsedge; [8]) | S. Flatsedge plant response rating (smallflower flatsedge; [9]) | S. Flatsedge plant response rating (smallflower flatsedge; [10]) | S. Flatsedge plant response rating (smallflower flatsedge; [11]) | Rice plant response rating (rice; [8]) | Rice plant response rating (rice; [9]) | Rice plant response rating (rice; [10]) | Rice plant response rating (rice; [11]) | Morningglory plant response rating (morningglory; [1]) | Morningglory plant response rating (morningglory; [2]) | Morningglory plant response rating (morningglory; [4]) | Rape plant response rating (rape; [1]) | Plant response rating (0 to 10; 0 is no effect, 10 is complete control), Rape (rape; Rate 250 g/ha, Postemergence) | Rape plant response rating (rape; [5]) | Blackgrass plant response rating (blackgrass; [6]) | Wheat plant response rating (wheat; [1]) | Wheat plant response rating (wheat; [2]) | Wheat plant response rating (wheat; [4]) | Wild oats plant response rating (wild oat; [1]) | Wild oats plant response rating (wild oat; [5]) | Velvetleaf plant response rating (velvetleaf; [1]) | Velvetleaf plant response rating (velvetleaf; [5]) | Plant response rating (0 to 10; 0 is no effect, 10 is complete control), Nutsedge (purple nutsedge; Rate 250 g/ha) | Nutsedge plant response rating (purple nutsedge; Rate 500 g/ha, scale 0 to 10, 0 no effect, 10 complete control) | Ducksalad plant response rating (duck salad; [8]) | Ducksalad plant response rating (duck salad; [9]) | Ducksalad plant response rating (duck salad; [10]) | Ducksalad plant response rating (duck salad; [11]) | B. signalgrass plant response rating (surinam grass; [6]) | B. signalgrass plant response rating (surinam grass; Rate 125 g/ha, Postemergence, scale 0 (no effect) to 10 (complete control)) | Plant response rating (0 to 10; 0 is no effect, 10 is complete control), B. signalgrass (surinam grass; Rate 250 g/ha, Postemergence) | Redroot pigweed plant response rating (pigweed; [1]) | Soybean plant response rating (soybean; [1]) | Soybean plant response rating (soybean; [2]) | Plant response rating, Soybean (soybean; [3]) | Soybean plant response rating (soybean; [4]) | Barnyardgrass plant response rating (bamyardgrass; [8]) | Barnyardgrass plant response rating (bamyardgrass; [9]) | Barnyardgrass plant response rating (bamyardgrass; [10]) | Barnyardgrass plant response rating (bamyardgrass; [11]) | Cocklebur plant response rating (cocklebur; [1]) | Cocklebur plant response rating (cocklebur; [2]) | Plant response rating, Cocklebur (cocklebur; [3]) | Cocklebur plant response rating (cocklebur; [6]) | Cocklebur plant response rating (cocklebur; [7]) | Cocklebur plant response rating (cocklebur; [4]) | Plant response rating (0 to 10; 0 is no effect, 10 is complete control), Cocklebur (cocklebur; Rate 250 g/ha, Postemergence) | Bedstraw plant response rating (bedstraw; [1]) | Bedstraw plant response rating (bedstraw; [4])
